Columns and labels:
[1] = molecular target: T1, Arginase-2, mitochondrial (Homo sapiens, UniProt P78540); test: Binding affinity to human Arg II
T1 sequence (P78540 whole entry): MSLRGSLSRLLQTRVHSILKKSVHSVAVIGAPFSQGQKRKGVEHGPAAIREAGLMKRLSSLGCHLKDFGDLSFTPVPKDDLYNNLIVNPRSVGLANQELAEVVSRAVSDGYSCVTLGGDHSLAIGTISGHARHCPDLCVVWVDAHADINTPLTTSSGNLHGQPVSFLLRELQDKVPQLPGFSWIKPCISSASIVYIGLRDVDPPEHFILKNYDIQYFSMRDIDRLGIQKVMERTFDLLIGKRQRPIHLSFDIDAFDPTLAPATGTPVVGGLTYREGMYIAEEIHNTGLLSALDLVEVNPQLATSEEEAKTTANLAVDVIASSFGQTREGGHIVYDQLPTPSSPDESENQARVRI

[2] = Inhibition of Escherichia coli IMP-1
[3] = Inhibition of Escherichia coli VIM-2
[4] = Inhibition of Escherichia coli NDM-1
[5] = molecular target: BlaVIM-1 (Escherichia coli, UniProt Q8GDC1); test: Inhibition of Escherichia coli VIM-1
[6] = Clearance in C57BL/6 mouse at 25 to 50 mg/kg, po by LC-MS/MS analysis; format: ADME, organism-based; details: in vivo, dose 25-50 mg/kg
[7] = Oral bioavailability in C57BL/6 mouse at 25 to 50 mg/kg by LC-MS/MS analysis; format: ADME, organism-based; details: in vivo, dose 25-50 mg/kg
[8] = molecular target: T2, 3',5'-cyclic-AMP phosphodiesterase 4B (Homo sapiens, UniProt Q07343); test: Inhibition of human PDE4 catalytic domain expressed in Escherichia coli
T2 sequence (Q07343 whole entry, the tested form may be a part): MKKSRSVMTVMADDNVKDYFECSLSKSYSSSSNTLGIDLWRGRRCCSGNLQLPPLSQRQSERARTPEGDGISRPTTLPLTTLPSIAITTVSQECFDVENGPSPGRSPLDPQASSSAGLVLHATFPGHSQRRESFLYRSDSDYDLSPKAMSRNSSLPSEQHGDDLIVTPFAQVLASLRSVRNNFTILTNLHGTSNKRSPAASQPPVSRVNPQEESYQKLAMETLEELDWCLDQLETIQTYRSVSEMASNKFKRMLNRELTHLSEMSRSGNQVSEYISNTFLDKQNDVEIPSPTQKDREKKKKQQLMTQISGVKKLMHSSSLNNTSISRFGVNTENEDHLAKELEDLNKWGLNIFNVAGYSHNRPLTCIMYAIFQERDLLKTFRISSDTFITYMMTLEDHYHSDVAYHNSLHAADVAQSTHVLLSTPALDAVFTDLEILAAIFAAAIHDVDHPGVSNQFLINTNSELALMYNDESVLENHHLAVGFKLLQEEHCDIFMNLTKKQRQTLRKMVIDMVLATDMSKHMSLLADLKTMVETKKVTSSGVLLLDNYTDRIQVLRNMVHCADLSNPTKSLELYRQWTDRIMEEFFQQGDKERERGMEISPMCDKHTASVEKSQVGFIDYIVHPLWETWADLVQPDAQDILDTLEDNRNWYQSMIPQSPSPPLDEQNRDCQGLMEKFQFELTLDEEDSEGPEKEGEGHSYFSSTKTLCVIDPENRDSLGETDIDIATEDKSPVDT

[9] = molecular target: Carbonic anhydrase 12 (Homo sapiens, UniProt O43570); test: Binding affinity to human CA12 assessed as inhibition constant
Sequence of Carbonic anhydrase 12 (O43570 whole entry): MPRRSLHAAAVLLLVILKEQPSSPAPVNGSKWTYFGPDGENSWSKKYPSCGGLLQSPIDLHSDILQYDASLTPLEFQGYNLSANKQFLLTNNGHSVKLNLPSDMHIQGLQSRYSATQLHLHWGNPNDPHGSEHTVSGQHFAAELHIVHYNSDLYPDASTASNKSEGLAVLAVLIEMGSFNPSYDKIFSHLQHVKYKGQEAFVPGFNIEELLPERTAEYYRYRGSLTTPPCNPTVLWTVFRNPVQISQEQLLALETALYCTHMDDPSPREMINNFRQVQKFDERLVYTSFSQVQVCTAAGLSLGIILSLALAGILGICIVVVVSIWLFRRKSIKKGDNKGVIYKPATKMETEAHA

[10] = molecular target: Carbonic anhydrase 1 (Homo sapiens, UniProt P00915); test: Binding affinity to human CA1 assessed as inhibition constant
Sequence of Carbonic anhydrase 1 (P00915 whole entry): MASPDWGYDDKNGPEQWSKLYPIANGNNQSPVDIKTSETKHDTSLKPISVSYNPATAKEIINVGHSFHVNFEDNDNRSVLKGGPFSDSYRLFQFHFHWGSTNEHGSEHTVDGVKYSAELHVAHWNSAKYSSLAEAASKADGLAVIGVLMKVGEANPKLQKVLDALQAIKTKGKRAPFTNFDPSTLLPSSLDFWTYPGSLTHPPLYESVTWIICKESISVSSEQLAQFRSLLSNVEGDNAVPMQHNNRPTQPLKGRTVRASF

[11] = molecular target: Carbonic anhydrase 9 (Homo sapiens, UniProt Q16790); test: Binding affinity to human CA9 assessed as inhibition constant
[12] = molecular target: T3, Arginase-1 (Rattus norvegicus, UniProt P07824); test: Inhibition of rat liver arginase using L-arginine as substrate incubated for 10 mins followed by substrate addition by scintillation counting analysis; format: tissue-based
T3 sequence (P07824 whole entry): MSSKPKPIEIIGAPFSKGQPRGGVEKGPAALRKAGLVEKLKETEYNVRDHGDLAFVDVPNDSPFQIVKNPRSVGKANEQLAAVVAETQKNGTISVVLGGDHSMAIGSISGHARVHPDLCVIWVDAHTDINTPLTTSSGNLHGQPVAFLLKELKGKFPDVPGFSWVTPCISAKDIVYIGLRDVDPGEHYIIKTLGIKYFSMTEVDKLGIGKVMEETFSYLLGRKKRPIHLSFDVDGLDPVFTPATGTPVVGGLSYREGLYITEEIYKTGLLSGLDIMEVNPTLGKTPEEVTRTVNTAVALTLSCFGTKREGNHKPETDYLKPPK

[13] = molecular target: T4, Arginase-1 (Homo sapiens, UniProt P05089); test: Binding affinity to human Arg I
T4 sequence (P05089 whole entry): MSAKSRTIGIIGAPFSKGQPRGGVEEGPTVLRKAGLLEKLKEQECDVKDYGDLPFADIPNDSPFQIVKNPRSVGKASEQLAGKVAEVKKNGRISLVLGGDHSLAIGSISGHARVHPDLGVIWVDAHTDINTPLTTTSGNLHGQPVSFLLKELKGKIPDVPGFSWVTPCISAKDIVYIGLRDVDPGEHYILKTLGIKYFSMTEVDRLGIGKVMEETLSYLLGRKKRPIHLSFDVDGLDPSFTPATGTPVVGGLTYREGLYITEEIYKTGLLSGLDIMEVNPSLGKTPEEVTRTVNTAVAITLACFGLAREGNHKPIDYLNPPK

[14] = molecular target: T2, 3',5'-cyclic-AMP phosphodiesterase 4B; test: Inhibition of human PDE4 catalytic domain expressed in Escherichia coli at 10 uM relative to control
[15] = Inhibition of beta-lactamase TEM-1 (unknown origin); design: species or system Bacteria
[16] = molecular target: T3, Arginase-1; test: Binding affinity to rat Arg I
[17] = molecular target: T5, Autotaxin (Homo sapiens, UniProt Q13822); test: Inhibition of human recombinant ATX using ABTS as substrate by absorbance based analysis
[18] = molecular target: T4, Arginase-1; test: Inhibition of human Arg I
[19] = molecular target: T5, Autotaxin; test: Inhibition of human recombinant ATX

With OB(O)/C=C/Cc1ccccc1 the Ki [1] was 0.089 µM.

With NCCN[C@H]1CC[C@H](CC(=O)N[C@H]2Cc3cccc(C(=O)O)c3OB2O)CC1 the IC50 [2] was 2.5 µM, the IC50 [3] was 0.0005 µM and the IC50 [4] was 0.01 µM. For the same compound, the IC50 [5] was 0.0079 µM.

In the case of C[C@H](N)C(=O)N1C[C@H](CCCB(O)O)[C@](N)(C(=O)O)C1, the CL/F [6] is reported as 0.6 L/h/kg and the bioavailability [7] is reported as 91%.

Work on N#Cc1ccc(Oc2ccc3c(c2)COB3O)nc1 yielded an IC50 [8] of 0.18 µM.

COc1ccc(C)cc1NC(=O)Nc1ccc2c(c1)B(O)OC2 gave a Ki [9] of 0.069 µM, a Ki [10] of 0.098 µM and a Ki [11] of 0.414 µM.

In the case of N#Cc1ccc(Oc2ccc3c(c2)COB3O)cc1 [CRISABOROLE], the IC50 [8] is reported as 0.11 µM.

For N#Cc1ccc(Oc2ccc3c(c2)COB3O)cc1C#N, the IC50 [8] was 0.06 µM.

For CCOC(=O)c1ccc(Oc2ccc3c(c2)COB3O)nc1, the IC50 [8] was 0.047 µM.

N[C@@H](CC/C=C/B(O)O)C(=O)O gave an IC50 [12] of 15 µM.

With N[C@@H](CCCC[N+](=O)[O-])C(=O)O the Kd [13] was 60 µM.

OB1OCc2ccc(NC(=S)Nc3ccc(C(F)(F)F)cc3)cc21 gave a Ki [9] of 0.071 µM and a Ki [11] of 0.093 µM.

CC(=O)OCCOc1cc(Oc2ccc3c(c2)COB3O)ccc1C#N gave an IC50 [8] of 0.0007 µM.

For O=C(O)c1ccc(Oc2ccc3c(c2)COB3O)nc1, the IC50 [8] was > 0.01 µM and the inhibition [14] was 5%.

For O=C(O)c1cccc2c1OB(O)[C@@H](NC(=O)C1CCCCC1)C2, the IC50 [3] was 0.051 µM and the IC50 [4] was 2.04 µM.

Work on CC(=O)N[C@H]1Cc2cccc(C(=O)O)c2OB1O yielded an IC50 [15] of 0.013 µM.

Work on N#Cc1ccc(Oc2ccc3c(c2)COB3O)cc1OCCO yielded an IC50 [8] of 0.024 µM.

CCOc1nc(-c2cncc(C3COB(O)C3)c2)c(F)cc1OC (stereo not drawn) showed an IC50 [8] of 0.00012 µM.

Compound NC(CCCCC(=O)O)C(=O)O (stereo not drawn) has a Kd [16] of 30000 µM.

NC(Cc1ccc(B(O)O)cc1)C(=O)O (stereo not drawn) gave an IC50 [12] of 6000 µM.

In the case of O=C1S/C(=C\c2ccc(OCc3ccccc3B(O)O)cc2)C(=O)N1Cc1ccc(F)cc1, the IC50 [17] is reported as > 0.005 µM.

For N[C@@H](CCCCC=O)C(=O)O, the Ki [16] was 60 µM.

N[C@@H](CCCCB(O)O)C(=O)O gave an IC50 [18] of 1.45 µM.

Nc1nccn1CCC[C@H](N)C(=O)O gave a Ki [13] of 30000 µM.

For O=C1N=C(N2CCN(Cc3ccc(C(=O)O)cc3)CC2)S/C1=C\c1ccc(Cl)c(Cl)c1, the IC50 [19] was 0.025 µM.

From ChEMBL document CHEMBL5230159, “Targeting Metalloenzymes by Boron-Containing Metal-Binding Pharmacophores” (J Med Chem, 2021)
